Measured values reported in ChEMBL document CHEMBL3792297, “Studies on phenothiazines: New microtubule-interacting compounds with phenothiazine A-ring as potent antineoplastic agents” (Bioorg Med Chem, 2016).

How the values were obtained:
Assay type in all cases: functional
[1] = Growth inhibition of human LOXIMVI cells at 10 uM after 48 hrs by SRB assay relative to control; settings: LOX IMVI, read-out: GI
[2] = Growth inhibition of human HOP62 cells at 10 uM after 48 hrs by SRB assay relative to control; settings: HOP-62, 48 h, read-out: GI
SK-MEL-2 = assay: Growth inhibition of human SK-MEL-2 cells at 10 uM after 48 hrs by SRB assay relative to control; settings: SK-MEL-2, 48 h, read-out: GI
NCI-H460 = assay: Growth inhibition of human NCI-H460 cells at 10 uM after 48 hrs by SRB assay relative to control; settings: NCI-H460, 48 h, read-out: GI
NCI-H322M = assay: Growth inhibition of human NCI-H322M cells at 10 uM after 48 hrs by SRB assay relative to control; settings: read-out: GI
MDA-MB-435 = assay: Growth inhibition of human MDA-MB-435 cells at 10 uM after 48 hrs by SRB assay relative to control; settings: MDA-MB-435, 48 h, read-out: GI
A549 = assay: Growth inhibition of human A549 cells at 10 uM after 48 hrs by SRB assay relative to control; settings: A549, 48 h, read-out: GI
MDA-MB-468 = assay: Growth inhibition of human MDA-MB-468 cells at 10 uM after 48 hrs by SRB assay relative to control; settings: MDA-MB-468, 48 h, read-out: GI
[3] = Growth inhibition of human RPMI8226 cells at 10 uM after 48 hrs by SRB assay relative to control; settings: RPMI-8226, 48 h, read-out: GI
NCI-H522 = assay: Growth inhibition of human NCI-H522 cells at 10 uM after 48 hrs by SRB assay relative to control; settings: NCI-H522, 48 h, read-out: GI
[4] = Growth inhibition of human HCC2998 cells at 10 uM after 48 hrs by SRB assay relative to control; settings: HCC 2998, 48 h, read-out: GI
[5] = Growth inhibition of human Caki1 cells at 10 uM after 48 hrs by SRB assay relative to control; settings: CAKI-1, 48 h, read-out: GI
[6] = Growth inhibition of human SF295 cells at 10 uM after 48 hrs by SRB assay relative to control; settings: SF-295, 48 h, read-out: GI
[7] = Growth inhibition of human HCT116 cells at 10 uM after 48 hrs by SRB assay relative to control; settings: HCT-116, 48 h, read-out: GI
K562 = assay: Growth inhibition of human K562 cells at 10 uM after 48 hrs by SRB assay relative to control; settings: K562, 48 h, read-out: GI
[8] = Growth inhibition of human BT549 cells at 10 uM after 48 hrs by SRB assay relative to control; settings: BT-549, 48 h, read-out: GI
[9] = Growth inhibition of human COLO205 cells at 10 uM after 48 hrs by SRB assay relative to control; settings: COLO 205, 48 h, read-out: GI
[10] = Growth inhibition of human HOP92 cells at 10 uM after 48 hrs by SRB assay relative to control; settings: HOP-92, 48 h, read-out: GI
[11] = Growth inhibition of human SNB19 cells at 10 uM after 48 hrs by SRB assay relative to control; settings: SNB-19, 48 h, read-out: GI
[12] = Growth inhibition of human OVCAR8 cells at 10 uM after 48 hrs by SRB assay relative to control; settings: OVCAR-8, 48 h, read-out: GI
ACHN = assay: Growth inhibition of human ACHN cells at 10 uM after 48 hrs by SRB assay relative to control; settings: read-out: GI
MCF7 = assay: Growth inhibition of human MCF7 cells at 10 uM after 48 hrs by SRB assay relative to control; settings: MCF7, 48 h, read-out: GI
[13] = Growth inhibition of human OVCAR5 cells at 10 uM after 48 hrs by SRB assay relative to control; settings: OVCAR-5, 48 h, read-out: GI
[14] = Growth inhibition of human OVCAR3 cells at 10 uM after 48 hrs by SRB assay relative to control; settings: OVCAR-3, 48 h, read-out: GI
[15] = Growth inhibition of human PC3 cells at 10 uM after 48 hrs by SRB assay relative to control; settings: PC-3, 48 h, read-out: GI
[16] = Growth inhibition of human UACC62 cells at 10 uM after 48 hrs by SRB assay relative to control; settings: UACC-62, 48 h, read-out: GI
NCI-H226 = assay: Growth inhibition of human NCI-H226 cells at 10 uM after 48 hrs by SRB assay relative to control; settings: NCI-H226, 48 h, read-out: GI
[17] = Growth inhibition of human UO31 cells at 10 uM after 48 hrs by SRB assay relative to control; settings: UO-31, 48 h, read-out: GI
786-0 = assay: Growth inhibition of human 786-0 cells at 10 uM after 48 hrs by SRB assay relative to control; settings: 786-0, 48 h, read-out: GI
NCI-H23 = assay: Growth inhibition of human NCI-H23 cells at 10 uM after 48 hrs by SRB assay relative to control; settings: NCI-H23, 48 h, read-out: GI
[18] = Growth inhibition of human IGROV1 cells at 10 uM after 48 hrs by SRB assay relative to control; settings: IGROV-1, 48 h, read-out: GI
[19] = Growth inhibition of human DU145 cells at 10 uM after 48 hrs by SRB assay relative to control; settings: DU-145, 48 h, read-out: GI
U-251 = assay: Growth inhibition of human U251 cells at 10 uM after 48 hrs by SRB assay relative to control; settings: U-251, 48 h, read-out: GI
SK-MEL-28 = assay: Growth inhibition of human SK-MEL-28 cells at 10 uM after 48 hrs by SRB assay relative to control; settings: SK-MEL-28, 48 h, read-out: GI
M14 = assay: Growth inhibition of human M14 cells at 10 uM after 48 hrs by SRB assay relative to control; settings: M14, 48 h, read-out: GI
EKVX = assay: Growth inhibition of human EKVX cells at 10 uM after 48 hrs by SRB assay relative to control; settings: read-out: GI
[20] = Growth inhibition of human SKOV3 cells at 10 uM after 48 hrs by SRB assay relative to control; settings: SK-OV-3, 48 h, read-out: GI
T47D = assay: Growth inhibition of human T47D cells at 10 uM after 48 hrs by SRB assay relative to control; settings: read-out: GI

Structure (SMILES) | inhibition of growth at 10 µM [1] [%] | inhibition of growth at 10 µM [2] [%] | inhibition of growth at 10 µM (SK-MEL-2) [%] | inhibition of growth at 10 µM (NCI-H460) [%] | inhibition of growth at 10 µM (A549) [%] | inhibition of growth at 10 µM (MDA-MB-468) [%] | inhibition of growth at 10 µM [3] [%] | inhibition of growth at 10 µM (NCI-H522) [%] | inhibition of growth at 10 µM [4] [%] | inhibition of growth at 10 µM [5] [%] | inhibition of growth at 10 µM [6] [%] | inhibition of growth at 10 µM [7] [%] | inhibition of growth at 10 µM (K562) [%] | inhibition of growth at 10 µM [8] [%] | inhibition of growth at 10 µM [9] [%] | inhibition of growth at 10 µM [10] [%] | inhibition of growth at 10 µM [11] [%] | inhibition of growth at 10 µM [12] [%] | inhibition of growth at 10 µM (ACHN) [%] | inhibition of growth at 10 µM (MCF7) [%] | further results
O/N=C(/c1ccc2c(c1)Sc1ccccc1N2)c1c[nH]c2ccccc12 | 44 | 42 | 57 | 82 | 48 | 63 | 53 | 100 | 5 | 53 | 55 | 64 | 87 | 63 | 45 | 51 | 40 | 24 | 17 | 57 | inhibition of growth at 10 µM (NCI-H322M): 26%; inhibition of growth at 10 µM (MDA-MB-435): 100%; inhibition of growth at 10 µM [13]: 31%; inhibition of growth at 10 µM [14]: 96%; inhibition of growth at 10 µM [15]: 72%; inhibition of growth at 10 µM [16]: 54%; inhibition of growth at 10 µM (NCI-H226): 23%; inhibition of growth at 10 µM [17]: 41%; inhibition of growth at 10 µM (786-0): 38%; inhibition of growth at 10 µM (NCI-H23): 24%; inhibition of growth at 10 µM [18]: 44%; inhibition of growth at 10 µM [19]: 41%; inhibition of growth at 10 µM (U-251): 31%; inhibition of growth at 10 µM (SK-MEL-28): 31%
COc1ccc(C(=O)c2ccc3c(c2)Sc2cc(C(=O)c4ccc(OC)c(F)c4)ccc2N3C)cc1F | 0 | 6 | 4 | 0 | 15 | 13 | 0 | 20 | 0 | 0 | 0 | 2 | 6 | 34 | 0 | 1 | 6 | 6 | 0 | 7 | inhibition of growth at 10 µM (NCI-H322M): 0%; inhibition of growth at 10 µM (MDA-MB-435): 0%; inhibition of growth at 10 µM [13]: 0%; inhibition of growth at 10 µM [14]: 16%; inhibition of growth at 10 µM [15]: 3%; inhibition of growth at 10 µM [16]: 0%; inhibition of growth at 10 µM (NCI-H226): 0%; inhibition of growth at 10 µM [17]: 1%; inhibition of growth at 10 µM (786-0): 23%; inhibition of growth at 10 µM (NCI-H23): 4%; inhibition of growth at 10 µM [18]: 0%; inhibition of growth at 10 µM [19]: 0%; inhibition of growth at 10 µM (U-251): 10%; inhibition of growth at 10 µM (SK-MEL-28): 0%
O=C(c1ccc2c(c1)Sc1ccccc1N2)c1c[nH]c2ccccc12 | 85 | 61 | 94 | 90 | 77 | 100 | 56 | 100 | 64 | 66 | 96 | 82 | 81 | 69 | 100 | 28 | 41 | 77 | 45 | 80 | inhibition of growth at 10 µM (M14): 86%; inhibition of growth at 10 µM [13]: 60%; inhibition of growth at 10 µM (EKVX): 47%; inhibition of growth at 10 µM [14]: 100%; inhibition of growth at 10 µM [15]: 74%; inhibition of growth at 10 µM [16]: 46%; inhibition of growth at 10 µM (NCI-H226): 18%; inhibition of growth at 10 µM [20]: 85%; inhibition of growth at 10 µM (T47D): 72%; inhibition of growth at 10 µM [17]: 58%; inhibition of growth at 10 µM (786-0): 50%; inhibition of growth at 10 µM (NCI-H23): 68%; inhibition of growth at 10 µM [18]: 71%; inhibition of growth at 10 µM [19]: 91%; inhibition of growth at 10 µM (U-251): 83%; inhibition of growth at 10 µM (SK-MEL-28): 54%
COc1ccc(C(=O)c2ccc3c(c2)Sc2ccccc2N3C)cc1F | 21 | 17 | 17 | 13 | 44 | 55 | 5 | 22 | 5 | 22 | 16 | 17 | 61 | 58 | 34 | 17 | 15 | 4 | 0 | 37 | inhibition of growth at 10 µM (NCI-H322M): 5%; inhibition of growth at 10 µM (MDA-MB-435): 87%; inhibition of growth at 10 µM [13]: 12%; inhibition of growth at 10 µM [14]: 40%; inhibition of growth at 10 µM [15]: 21%; inhibition of growth at 10 µM [16]: 26%; inhibition of growth at 10 µM (NCI-H226): 15%; inhibition of growth at 10 µM [17]: 2%; inhibition of growth at 10 µM (786-0): 16%; inhibition of growth at 10 µM (NCI-H23): 13%; inhibition of growth at 10 µM [18]: 7%; inhibition of growth at 10 µM [19]: 0%; inhibition of growth at 10 µM (U-251): 18%; inhibition of growth at 10 µM (SK-MEL-28): 13%
